{"source": "patent US10100050B2", "about": "(CHIESI FARMACEUTICI S.P.A., priority 2015, dated 2018)", "key": {"[1]": {"target": "T1, p38alpha (Homo sapiens, UniProt Q16539)", "T1 construct": "purchased Invitrogen PV3304", "T1 sequence (Q16539 whole entry, the tested form may be a part)": "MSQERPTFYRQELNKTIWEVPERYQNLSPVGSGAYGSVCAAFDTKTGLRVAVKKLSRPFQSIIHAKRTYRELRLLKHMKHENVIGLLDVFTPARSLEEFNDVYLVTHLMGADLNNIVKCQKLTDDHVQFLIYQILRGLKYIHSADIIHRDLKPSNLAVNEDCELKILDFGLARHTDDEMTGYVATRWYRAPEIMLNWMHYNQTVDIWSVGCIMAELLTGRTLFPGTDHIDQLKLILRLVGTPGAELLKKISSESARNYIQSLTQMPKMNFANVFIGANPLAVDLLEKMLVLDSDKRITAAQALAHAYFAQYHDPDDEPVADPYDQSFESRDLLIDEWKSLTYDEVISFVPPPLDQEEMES", "assay": "P38alpha enzyme inhibition assay (Alphascreen kinase activity assay)", "format": "biochemical", "conditions": "IC50 classes; 2 hours preincubation at 25° C., 250 μM ATP; read-out: p38α inhibition", "how_it_was_run": "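p38alpha with 0.3 μg/ml ATF-2 fusion protein in HEPES pH 7.5 buffer (10 mM MgCl2, 2 mM DTT, 1% DMSO); compounds preincubated 2 h at 25° C, then 250 μM ATP added for 1 h at 25° C. Phospho-ATF2 detected by AlphaScreen luminescence with anti-phospho-ATF2 antibody; IC50 from concentration-response curves.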"}, "[2]": {"tested_on": "Peripheral Blood Mononuclear Cells (PBMCs)", "assay": "LPS-stimulated PBMC TNFα release assay", "format": "cell-based", "conditions": "IC50 classes; human PBMC, LPS 10 ng/ml, 18 h; read-out: LPS-stimulated PBMC TNFα release inhibition", "how_it_was_run": "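Human PBMCs from healthy donors, adhered 3 h in serum-free RPMI, received compound for 1 h in 1% FBS medium before 10 ng/ml LPS for 18 h. Supernatant TNFα was measured by MSD; IC50 from percentage inhibition of control release, at least three separate experiments.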"}, "[3]": {"tested_on": "BEAS-2B cells", "assay": "TNFα-stimulated BEAS-2B IL-8 release assay", "format": "cell-based", "conditions": "Homo sapiens, IC50 classes, TNF-α 10 ng/ml, 18 h, read-out: TNFα-stimulated BEAS-2B IL-8 release inhibition", "how_it_was_run": "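BEAS-2B cells at 80-90% confluence were pre-incubated 1 h with p38 inhibitors, then stimulated 18 h at 37 °C with TNF-α (10 ng/ml). Supernatant IL-8 was measured by ELISA. IC50 was taken from sigmoidal variable-slope fits of % inhibition of control release.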"}}, "data": [{"smiles": "CN(CCO)Cc1cc(NC(=O)N[C@H]2CC[C@@H](Oc3ccc4nnc([C@]5(C)CCCN5C)n4c3)c3ccccc32)cc(C(C)(C)C)c1", "note": "[Example 67, 1-(3-tert-Butyl-5-{[(2-hydroxy-ethyl)-methyl-amino]-methyl}-phenyl)-3-{(1S,4R)-4-[3-((S)-1,2-dimethyl-pyrrolidin-2-yl)-[1,2,4]triazolo[4,3-a]pyridin-6-yloxy]-1,2,3,4-tetrahydro-naphthalen-1-yl}-urea]", "values": [{"measurement": "IC50", "setting": "[1]", "result": "< 1", "unit": "nM"}, {"measurement": "IC50", "setting": "[2]", "result": "> 5", "unit": "nM"}, {"measurement": "IC50", "setting": "[3]", "result": "0.3 to 1", "unit": "nM"}]}, {"smiles": "C[C@H]1CCCCN1c1nnc2ccc(O[C@@H]3CC[C@H](NC(=O)Nc4cc(CN(C)CCO)cc(C(C)(C)C)c4)c4ccccc43)cn12", "note": "[Example 68, 1-(3-tert-Butyl-5-{[(2-hydroxy-ethyl)-methyl-amino]-methyl}-phenyl)-3-{(1S,4R)-4-[3-((S)-2-methyl-piperidin-1-yl)-[1,2,4]triazolo[4,3-a]pyridin-6-yloxy]-1,2,3,4-tetrahydro-naphthalen-1-yl}-urea]", "values": [{"measurement": "IC50", "setting": "[1]", "result": "< 1", "unit": "nM"}, {"measurement": "IC50", "setting": "[2]", "result": "> 5", "unit": "nM"}, {"measurement": "IC50", "setting": "[3]", "result": "> 1", "unit": "nM"}]}, {"smiles": "CN(C)CCOCc1cc(NC(=O)N[C@H]2CC[C@@H](Oc3ccc4nnc([C@]5(C)CCCN5C)n4c3)c3ccccc32)cc(C(C)(C)C)c1", "note": "[Example 69]", "values": [{"measurement": "IC50", "setting": "[1]", "result": "< 1", "unit": "nM"}, {"measurement": "IC50", "setting": "[2]", "result": "> 5", "unit": "nM"}, {"measurement": "IC50", "setting": "[3]", "result": "< 0.3", "unit": "nM"}]}, {"smiles": "C[C@H]1CCCCN1c1nnc2ccc(O[C@@H]3CC[C@H](NC(=O)Nc4cc(COCCN(C)C)cc(C(C)(C)C)c4)c4ccccc43)cn12", "note": "[Example 70, 1-[3-tert-Butyl-5-(2-dimethylamino-ethoxymethyl)-phenyl]-3-{(1S,4R)-4-[3-((S)-2-methyl-piperidin-1-yl)-[1,2,4]triazolo[4,3-a]pyridin-6-yloxy]-1,2,3,4-tetrahydro-naphthalen-1-yl}-urea]", "values": [{"measurement": "IC50", "setting": "[1]", "result": "< 1", "unit": "nM"}, {"measurement": "IC50", "setting": "[2]", "result": "> 5", "unit": "nM"}, {"measurement": "IC50", "setting": "[3]", "result": "0.3 to 1", "unit": "nM"}]}, {"smiles": "CN1CCC[C@@]1(C)c1nnc2ccc(O[C@@H]3CC[C@H](NC(=O)Nc4cc(COCCN5CCCCC5)cc(C(C)(C)C)c4)c4ccccc43)cn12", "note": "[Example 71, 1-[3-tert-Butyl-5-(2-piperidin-1-yl-ethoxymethyl)-phenyl]-3-{(1S,4R)-4-[3-((S)-1,2-dimethyl-pyrrolidin-2-yl)-[1,2,4]triazolo[4,3-a]pyridin-6-yloxy]-1,2,3,4-tetrahydro-naphthalen-1-yl}-urea]", "values": [{"measurement": "IC50", "setting": "[1]", "result": "< 1", "unit": "nM"}, {"measurement": "IC50", "setting": "[2]", "result": "1 to 5", "unit": "nM"}, {"measurement": "IC50", "setting": "[3]", "result": "0.3 to 1", "unit": "nM"}]}, {"smiles": "CN1CCC[C@@]1(C)c1nnc2ccc(O[C@@H]3CC[C@H](NC(=O)Nc4cc(COCCN5CCOCC5)cc(C(C)(C)C)c4)c4ccccc43)cn12", "note": "[Example 72, 1-[3-tert-Butyl-5-(2-morpholin-4-yl-ethoxymethyl)-phenyl]-3-{(1S,4R)-4-[3-((S)-1,2-dimethyl-pyrrolidin-2-yl)-[1,2,4]triazolo[4,3-a]pyridin-6-yloxy]-1,2,3,4-tetrahydro-naphthalen-1-yl}-urea]", "values": [{"measurement": "IC50", "setting": "[1]", "result": "< 1", "unit": "nM"}, {"measurement": "IC50", "setting": "[2]", "result": "> 5", "unit": "nM"}, {"measurement": "IC50", "setting": "[3]", "result": "0.3 to 1", "unit": "nM"}]}, {"smiles": "CN1CCC[C@@]1(C)c1nnc2ccc(O[C@@H]3CC[C@H](NC(=O)Nc4cc(C(C)(C)C)ccc4CN4CCOCC4)c4ccccc43)cn12", "note": "[Example 73, 1-(5-tert-Butyl-2-morpholin-4-ylmethyl-phenyl)-3-{(1S,4R)-4-[3-((S)-1,2-dimethyl-pyrrolidin-2-yl)-[1,2,4]triazolo[4,3-a]pyridin-6-yloxy]-1,2,3,4-tetrahydro-naphthalen-1-yl}-urea]", "values": [{"measurement": "IC50", "setting": "[1]", "result": "1 to 10", "unit": "nM"}, {"measurement": "IC50", "setting": "[2]", "result": "> 5", "unit": "nM"}, {"measurement": "IC50", "setting": "[3]", "result": "0.3 to 1", "unit": "nM"}]}, {"smiles": "C[C@H]1CCCCN1c1nnc2ccc(O[C@@H]3CC[C@H](NC(=O)Nc4cc(C(C)(C)C)ccc4CN4CCOCC4)c4ccccc43)cn12", "note": "[Example 74, 1-(5-tert-Butyl-2-morpholin-4-ylmethyl-phenyl)-3-{(1S,4R)-4-[3-((S)-2-methyl-piperidin-1-yl)-[1,2,4]triazolo[4,3-a]pyridin-6-yloxy]-1,2,3,4-tetrahydro-naphthalen-1-yl}-urea]", "values": [{"measurement": "IC50", "setting": "[1]", "result": "1 to 10", "unit": "nM"}, {"measurement": "IC50", "setting": "[2]", "result": "> 5", "unit": "nM"}, {"measurement": "IC50", "setting": "[3]", "result": "0.3 to 1", "unit": "nM"}]}, {"smiles": "CN1CCC[C@@]1(C)c1nnc2ccc(O[C@@H]3CC[C@H](NC(=O)Nc4cc(CN(CCO)CCO)cc(C(C)(C)C)c4)c4ccccc43)cn12", "note": "[Example 75, 1-(3-{[Bis-(2-hydroxy-ethyl)-amino]-methyl}-5-tert-butyl-phenyl)-3-{(1S,4R)-4-[3-((S)-1,2-dimethyl-pyrrolidin-2-yl)-[1,2,4]triazolo[4,3-a]pyridin-6-yloxy]-1,2,3,4-tetrahydro-naphthalen-1-yl}-urea]", "values": [{"measurement": "IC50", "setting": "[1]", "result": "< 1", "unit": "nM"}, {"measurement": "IC50", "setting": "[2]", "result": "1 to 5", "unit": "nM"}, {"measurement": "IC50", "setting": "[3]", "result": "> 1", "unit": "nM"}]}, {"smiles": "C[C@H]1CCCCN1c1nnc2ccc(O[C@@H]3CC[C@H](NC(=O)Nc4cc(CN(CCO)CCO)cc(C(C)(C)C)c4)c4ccccc43)cn12", "note": "[Example 76, 1-(3-{[Bis-(2-hydroxy-ethyl)-amino]-methyl}-5-tert-butyl-phenyl)-3-{(1S,4R)-4-[3-((S)-2-methyl-piperidin-1-yl)-[1,2,4]triazolo[4,3-a]pyridin-6-yloxy]-1,2,3,4-tetrahydro-naphthalen-1-yl}-urea]", "values": [{"measurement": "IC50", "setting": "[1]", "result": "< 1", "unit": "nM"}, {"measurement": "IC50", "setting": "[2]", "result": "1 to 5", "unit": "nM"}, {"measurement": "IC50", "setting": "[3]", "result": "> 1", "unit": "nM"}]}]}
